The supplement of paper PMC5908809

Assays:
[1] = tested on: normal NK cells expanded with K562-aAPC; test: percent inhibition of viability; higher = more inhibition; conditions: 72 h, IL-2 2.5 ng/mL
Method: (§1)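 Drug sensitivity and resistance testing on K562-aAPC-expanded normal NK cells: 5 concentrations (10-fold steps over a 10,000-fold range), 72 h at 37 °C, viability by CellTiter-Glo normalised to DMSO and benzethonium chloride controls; DSS from the fitted curve.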

[2] = tested on: DERL-7 (IL-2 2.5 ng/mL); test: as above; conditions: 72 h
[3] = tested on: IMC-1 (IL-2 20 ng/mL); test: as above; conditions: 72 h
[4] = tested on: KAI3 (IL-2 2.5 ng/mL); test: as above; conditions: 72 h
[5] = tested on: KHYG-1 (IL-2 2.5 ng/mL); test: as above; conditions: 72 h
[6] = tested on: NK-92 (IL-2 2.5 ng/mL); test: as above; conditions: 72 h
[7] = tested on: NK-YS (IL-2 2.5 ng/mL); test: as above; conditions: 72 h
[8] = tested on: NKL (IL-2 2.5 ng/mL); test: as above; conditions: 72 h
[9] = tested on: SNK-6 (IL-2 2.5 ng/mL); test: as above; conditions: 72 h
[10] = tested on: YT (IL-2 2.5 ng/mL); test: as above; conditions: 72 h
[11] = tested on: normal primary NK cells, pool 1 (3 donors) (IL-2 2.5 ng/mL); test: as above; conditions: 72 h
[12] = tested on: normal primary NK cells, pool 1 (3 donors), resting (IL-2 0 ng/mL); test: as above; conditions: 72 h
[13] = tested on: normal primary NK cells, pool 2 (3 donors) (IL-2 2.5 ng/mL); test: as above; conditions: 72 h
[14] = tested on: normal primary NK cells, pool 3 (3 donors) (IL-2 2.5 ng/mL); test: as above; conditions: 72 h
[15] = tested on: normal NK cells expanded with K562-aAPC; test: drug sensitivity score (DSS) (DSS units); higher = more sensitive; extreme values may be limits of the assay; conditions: 72 h; IL-2 2.5 ng/mL
Method: as §1

[16] = tested on: DERL-7 (IL-2 2.5 ng/mL); test: as above; conditions: 72 h
[17] = tested on: IMC-1 (IL-2 20 ng/mL); test: as above; conditions: 72 h
[18] = tested on: KAI3 (IL-2 2.5 ng/mL); test: as above; conditions: 72 h
[19] = tested on: KHYG-1 (IL-2 2.5 ng/mL); test: as above; conditions: 72 h
[20] = tested on: NK-92 (IL-2 2.5 ng/mL); test: as above; conditions: 72 h
[21] = tested on: NK-YS (IL-2 2.5 ng/mL); test: as above; conditions: 72 h
[22] = tested on: NKL (IL-2 2.5 ng/mL); test: as above; conditions: 72 h
[23] = tested on: SNK-6 (IL-2 2.5 ng/mL); test: as above; conditions: 72 h
[24] = tested on: YT (IL-2 2.5 ng/mL); test: as above; conditions: 72 h
[25] = tested on: normal primary NK cells, pool 1 (3 donors) (IL-2 2.5 ng/mL); test: as above; conditions: 72 h
[26] = tested on: normal primary NK cells, pool 1 (3 donors), resting (IL-2 0 ng/mL); test: as above; conditions: 72 h
[27] = tested on: normal primary NK cells, pool 2 (3 donors) (IL-2 2.5 ng/mL); test: as above; conditions: 72 h
[28] = tested on: normal primary NK cells, pool 3 (3 donors) (IL-2 2.5 ng/mL); test: as above; conditions: 72 h

C[C@]12CC[C@H](O)CC1=CC[C@@H]1[C@@H]2CC[C@]2(C)C(c3cccnc3)=CC[C@@H]12 [Abiraterone] (max concentration tested 5000 nM)
percent inhibition of viability [%]
Conditions | 0.5 nM | 5 nM | 50 nM | 500 nM | 5000 nM
[1] | -3.92 | -2.08 | -4.35 | -1.44 | 15.5
[2] | -1.84 | 6.7 | -3.24 | 8.85 | -0.3
[3] | -0.05 | 0.08 | 1.73 | 4.6 | 25.9
[4] | 4.32 | 6.7 | 11.6 | 12.4 | 18.3
[5] | 2.05 | 18.6 | -0.59 | 2.88 | 6.94
[6] | 3.02 | 0.66 | 4.19 | 19.8 | 18.9
[7] | 4.24 | -1.71 | 1.76 | 0.55 | 14
[8] | 8.55 | 9.91 | 1.09 | 12.8 | 9.69
[9] | -4.3 | -11.1 | -26.2 | -25.2 | -1.46
[10] | -0.02 | 9.21 | -0.43 | 11.5 | 4.01
[11] | -9.05 | -7.76 | 5.1 | -0.54 | -7.49
[12] | 2.81 | 1.54 | 10.1 | 10.2 | 16.1
[13] | -1.86 | 7.99 | 1.79 | 9.51 | 6.09
[14] | 5.18 | 4.84 | 1.7 | 15.9 | -1.9

Conditions | drug sensitivity score
[15] | 0.21
[16] | 0
[17] | 1.72
[18] | 1.81
[19] | 0
[20] | 3.2
[21] | 0.2
[22] | 0
[23] | 0.89
[24] | 0
[25] | 0
[26] | 1
[27] | 0
[28] | 0

CO[C@H]1/C=C\C=C(/C)C(=O)NC2=CC(=O)C(NCCN(C)C)=C(C[C@@H](C)C[C@H](OC)[C@H](O)[C@@H](C)/C=C(\C)[C@@H]1OC(N)=O)C2=O [Alvespimycin] (max concentration tested 1000 nM)
percent inhibition of viability [%]
Conditions | 0.1 nM | 1 nM | 10 nM | 100 nM | 1000 nM
[1] | -6.1 | -4.9 | -1.57 | 67.3 | 100
[2] | -2.47 | -2.74 | 9.85 | 73.2 | 101
[3] | -5.23 | 4.85 | 1.66 | 16.1 | 101
[4] | 3.95 | 3.1 | 8.75 | 78.1 | 104
[5] | -3.99 | 2.16 | 2.52 | 55.2 | 107
[6] | -5.39 | 0.79 | 7.9 | 62.4 | 105
[7] | -5 | 5.02 | 9.34 | 96.8 | 105
[8] | -9.27 | 5.22 | 1.11 | 89.3 | 90.7
[9] | 11.2 | 9.82 | 13.6 | 97.6 | 91.2
[10] | -0.99 | 6.65 | 4.58 | 35.5 | 97
[11] | 9.22 | -0.64 | 16.4 | 73 | 87
[12] | 9.61 | -5.61 | 24.6 | 26.1 | 42
[13] | -14.3 | -3.64 | 14.4 | 68.9 | 82.6
[14] | -14.3 | -9.11 | 6.58 | 46.3 | 85.2

Conditions | drug sensitivity score
[15] | 13.3
[16] | 15.1
[17] | 8.22
[18] | 15.7
[19] | 12.2
[20] | 13.3
[21] | 19.2
[22] | 16.4
[23] | 19.9
[24] | 9.86
[25] | 15.5
[26] | 7.28
[27] | 14.8
[28] | 10.3
